Test results reported in publication PMC9374744, “Structural basis for receptor selectivity and inverse agonism in S1P5 receptors” (Nature Communications, 2022).
Several values for one entry are separate records, joined by “and”; a condition that tells them apart may be missing. Identical values can stand only once.

Assays:
human S1P5 V115L mutant = human S1P5 V115L mutant (Homo sapiens, UniProt Q9H228, V115L); assay: BRET-based cAMP Gi signaling assay, S1P5 V115L; conditions: inverse agonism
human S1P5 K24A mutant = human S1P5 K24A mutant (Homo sapiens, UniProt Q9H228, K24A); assay: BRET-based cAMP Gi signaling assay, S1P5 K24A; conditions: inverse agonism
Chain of human S1P5 K24A mutant (Q9H228 whole entry K24A): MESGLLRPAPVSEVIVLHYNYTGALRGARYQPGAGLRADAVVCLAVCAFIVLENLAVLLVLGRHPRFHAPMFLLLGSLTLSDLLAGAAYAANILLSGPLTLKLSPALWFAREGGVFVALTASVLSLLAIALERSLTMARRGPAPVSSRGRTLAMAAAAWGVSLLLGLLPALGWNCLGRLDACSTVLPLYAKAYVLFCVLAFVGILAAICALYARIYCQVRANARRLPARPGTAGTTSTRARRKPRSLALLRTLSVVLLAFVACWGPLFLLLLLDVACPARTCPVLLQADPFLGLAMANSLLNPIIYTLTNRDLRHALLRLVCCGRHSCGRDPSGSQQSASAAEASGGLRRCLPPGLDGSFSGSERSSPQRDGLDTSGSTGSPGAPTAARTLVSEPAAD

human S1P5 L292V mutant = human S1P5 L292V mutant (Homo sapiens, UniProt Q9H228, L292V); assay: BRET-based cAMP Gi signaling assay, S1P5 L292V; conditions: inverse agonism
Chain of human S1P5 L292V mutant (Q9H228 whole entry L292V): as the sequence (Q9H228 whole entry K24A) above, with A24K, L292V counted along it

human S1P5 N92C mutant = human S1P5 N92C mutant (Homo sapiens, UniProt Q9H228, N92C); assay: BRET-based cAMP Gi signaling assay, S1P5 N92C; conditions: inverse agonism
Chain of human S1P5 N92C mutant (Q9H228 whole entry N92C): as the sequence (Q9H228 whole entry K24A) above, with A24K, N92C counted along it

human WT S1P5 receptor = human WT S1P5 receptor (Homo sapiens, UniProt Q9H228); assay: BRET-based cAMP (EPAC biosensor) Gi signaling assay, WT S1P5; conditions: for BRET signal, raw replicate readings: WT, listed as ONO; for EC50: inverse agonism
Chain of human WT S1P5 receptor (Q9H228 whole entry): as the sequence (Q9H228 whole entry K24A) above, with A24K counted along it

human S1P5 R111Q mutant = human S1P5 R111Q mutant (Homo sapiens, UniProt Q9H228, R111Q); assay: BRET-based cAMP Gi signaling assay, S1P5 R111Q; conditions: inverse agonism
Chain of human S1P5 R111Q mutant (Q9H228 whole entry R111Q): as the sequence (Q9H228 whole entry K24A) above, with A24K, R111Q counted along it

human S1P5 Y19F mutant = human S1P5 Y19F mutant (Homo sapiens, UniProt Q9H228, Y19F); assay: BRET-based cAMP Gi signaling assay, S1P5 Y19F; conditions: for BRET ratio, Supplementary Figure 6b: replicate values, listed as ONO
Chain of human S1P5 Y19F mutant (Q9H228 whole entry Y19F): as the sequence (Q9H228 whole entry K24A) above, with Y19F, A24K counted along it

[1] = Figure 2c source data, N/R = no response

Chain of human S1P5 V115L mutant (Q9H228 whole entry V115L): as the sequence (Q9H228 whole entry K24A) above, with A24K, V115L counted along it

In the case of O=C(O)CCCN1CCc2cccc(OCCc3cccc4ccccc34)c2CC1 [ONO-5430608, 4-{6-[2-(1-naphthyl)ethoxy]-1,2,4,5-tetrahydro-3H-3-benzazepin-3-yl} butanoic acid], the EC50 (human S1P5 V115L mutant; ONO, pEC50, M, V115L, mean ± SD, n=3) is reported as 25.1 nM, the EC50 (human S1P5 V115L mutant; ONO-5430608 pEC50, single experiments #1-#3, V115L, Figure 2c source data) is reported as 20.7 nM and 25.9 nM and 22.9 nM and the “ONO-5430608 pEC50, single experiments #1-#3” value (from here on “ONO-5430608 pEC50”) (human S1P5 K24A mutant; [1]) is reported as “N/R”. The “ONO, pEC50, M” value (human S1P5 K24A mutant; n=3, N/R = no response) was “N/R”, the EC50 (human S1P5 L292V mutant; ONO, pEC50, M, L292V, mean ± SD, n=3) was 23.4 nM and the EC50 (human S1P5 L292V mutant; ONO-5430608 pEC50, single experiments #1-#3, L292V, Figure 2c source data) was 23 nM and 25.6 nM and 22.5 nM. The “ONO-5430608 pEC50” value (human S1P5 N92C mutant; [1]) was “N/R”, the “ONO, pEC50, M” value (human S1P5 N92C mutant; n=3, N/R = no response) was “N/R” and the “BRET signal, raw replicate readings” value (human WT S1P5 receptor; ONO 0.169351 nM, Suppl. Fig. 6f) was 0.7609 and 0.7595 and 0.7587 and 0.7654 and 0.7615 and 0.7604 (2×) and 0.7628 and 0.7565. The “BRET signal, raw replicate readings” value (human WT S1P5 receptor; ONO 0.508053 nM, Suppl. Fig. 6f) was 0.753 and 0.7592 and 0.758 and 0.7626 and 0.762 and 0.759 and 0.761 and 0.7561 and 0.756, the “BRET signal, raw replicate readings” value (human WT S1P5 receptor; ONO 1.52416 nM, Suppl. Fig. 6f) was 0.748 and 0.7474 and 0.7478 (2×) and 0.7504 and 0.7525 and 0.7488 and 0.7446 and 0.7482 and the “BRET signal, raw replicate readings” value (human WT S1P5 receptor; ONO 4.57247 nM, Suppl. Fig. 6f) was 0.7341 and 0.7354 and 0.7359 and 0.7386 and 0.7387 and 0.7347 and 0.7361 and 0.7362 and 0.7324. The “BRET signal, raw replicate readings” value (human WT S1P5 receptor; ONO 13.7174 nM, Suppl. Fig. 6f) was 0.7302 and 0.7285 and 0.7222 and 0.7325 and 0.7293 and 0.7332 and 0.7263 and 0.7276 and 0.7242, the “BRET signal, raw replicate readings” value (human WT S1P5 receptor; ONO 41.1523 nM, Suppl. Fig. 6f) was 0.7214 and 0.7273 and 0.7219 and 0.7256 and 0.7267 and 0.7266 and 0.7211 and 0.723 and 0.7239 and the “BRET signal, raw replicate readings” value (human WT S1P5 receptor; ONO 123.457 nM, Suppl. Fig. 6f) was 0.7206. The “BRET signal, raw replicate readings” value (human WT S1P5 receptor; ONO 370.37 nM, Suppl. Fig. 6f) was 0.7228 and 0.7223 and 0.7157 and 0.7233 and 0.7238 and 0.7187 and 0.7181 (2×) and 0.7189, the “BRET signal, raw replicate readings” value (human WT S1P5 receptor; ONO 1111.11 nM, Suppl. Fig. 6f) was 0.7185 and 0.7195 and 0.7179 and 0.7229 and 0.7236 and 0.7207 and 0.7165 and 0.7204 and 0.7176 and the “BRET signal, raw replicate readings” value (human WT S1P5 receptor; ONO 3333.33 nM, Suppl. Fig. 6f) was 0.719 and 0.7164 and 0.7226 and 0.7203 and 0.722 and 0.7221 and 0.7173 and 0.7187 and 0.715. For the same compound, the “BRET signal, raw replicate readings” value (human WT S1P5 receptor; ONO 10000 nM, Suppl. Fig. 6f) was 0.7216 and 0.7166 and 0.7165 and 0.7146 and 0.719 and 0.7226 and 0.7176 and 0.7153 and 0.7185, the “BRET signal, raw replicate readings” value (human WT S1P5 receptor; ONO 10000 nM, Suppl. Fig. 6d) was 0.7216 and 0.7166 and 0.7165 and 0.7146 and 0.719 and 0.7226 and 0.7176 and 0.7153 and 0.7185 and the EC50 (human WT S1P5 receptor; ONO, pEC50, M, WT S1P5, mean ± SD, n=3) was 1.7 nM. The EC50 (human WT S1P5 receptor; ONO-5430608 pEC50, single experiments #1-#3, WT S1P5, Figure 2c source data) was 1.35 nM and 2 nM and 1.8 nM, the “mode of action on Gi-protein-mediated signaling (basal activity level)” value (human WT S1P5 receptor; WT S1P5, BRET-based cAMP sensor) was “inverse agonist” and the “ONO-5430608 pEC50” value (human S1P5 R111Q mutant; [1]) was “N/R”. For the same compound, the “ONO, pEC50, M” value (human S1P5 R111Q mutant; n=3, N/R = no response) was “N/R”, the “BRET ratio, Supplementary Figure 6b” value (human S1P5 Y19F mutant; [ONO] 0.169351 nM) was 0.7728 and 0.7856 and 0.7903 and 0.7898 and 0.7857 and 0.7721 and 0.7815 and 0.7858 and 0.7955 and the “BRET ratio, Supplementary Figure 6b” value (human S1P5 Y19F mutant; [ONO] 0.508053 nM) was 0.7709 and 0.7829 and 0.7789 and 0.7882 and 0.7908 and 0.7857 and 0.7787 and 0.7826 and 0.7773. For the same compound, the “BRET ratio, Supplementary Figure 6b” value (human S1P5 Y19F mutant; [ONO] 1.52416 nM) was 0.7699 and 0.7813 and 0.7753 and 0.786 and 0.7843 and 0.7814 and 0.7777 and 0.78 and 0.7821, the “BRET ratio, Supplementary Figure 6b” value (human S1P5 Y19F mutant; [ONO] 4.57247 nM) was 0.7759 and 0.7968 and 0.7779 and 0.7827 and 0.7847 (2×) and 0.7768 and 0.7813 and 0.7893 and the “BRET ratio, Supplementary Figure 6b” value (human S1P5 Y19F mutant; [ONO] 13.7174 nM) was 0.7824 (2×) and 0.7736 and 0.7864 and 0.7844 and 0.776 and 0.7899 and 0.7904 and 0.7943. For the same compound, the “ONO-5430608 pEC50” value (human S1P5 Y19F mutant; inverse agonism, Figure 2c source data, N/R = no response) was “N/R” and the “ONO, pEC50, M” value (human S1P5 Y19F mutant; inverse agonism, n=3, N/R = no response) was “N/R”.
